Values joined by “and” are separate entries in the source; they are usually repeats but may differ in a detail not shown here. Identical values can stand only once.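 A five-concentration, 48-hour dose response in 96-well plates underlies each endpoint, interpolated linearly between surrounding concentrations. Abbreviation: GI50, concentration required for 50% inhibition of growth. TGI: total growth inhibition.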 Where a SMILES comes first, the peptide text is derived from it. Bridges are numbered along the chain shown (N, C = ends). [ ]: non-standard residue; d: D form. The star is where a group is joined. ξ: configuration not given here. X26 = O=C(/C=C/C=C/C=C/C=C/C=C/C(=O)*)NC1=C(O)CCC1=O; NMeA = CN[C@@H](C)C(=O)O; ξF = NC(Cc1ccccc1)C(=O)O; ξA = CC(N)C(=O)O
Assays:
Test in all cases: inhibition of tumour cell growth, NCI panel, 48 h
HCC-2998 colon = system: HCC-2998 colon
MALME-3M melanoma = system: MALME-3M melanoma
DU-145 prostate = system: DU-145 prostate
HOP-92 NSCLC = system: HOP-92 NSCLC
BT-549 breast = system: BT-549 breast
OVCAR-5 ovarian = system: OVCAR-5 ovarian
COLO 205 colon = system: COLO 205 colon
OVCAR-8 ovarian = system: OVCAR-8 ovarian
NCI-H522 lung = system: NCI-H522 lung
SNB-75 CNS = system: SNB-75 CNS

SMILES	TGI (HCC-2998 colon) [µM]	TGI (MALME-3M melanoma) [µM]	TGI (DU-145 prostate) [µM]	TGI (HOP-92 NSCLC) [µM]	TGI (BT-549 breast) [µM]	TGI (OVCAR-5 ovarian) [µM]	TGI (COLO 205 colon) [µM]	TGI (OVCAR-8 ovarian) [µM]	TGI (NCI-H522 lung) [µM]	TGI (SNB-75 CNS) [µM]	GI50 (HCC-2998 colon) [µM]	GI50 (OVCAR-5 ovarian) [µM]	GI50 (HOP-92 NSCLC)	GI50 (NCI-H522 lung)	GI50 (SNB-75 CNS)	GI50 (MALME-3M melanoma) [µM]	GI50 (DU-145 prostate) [µM]	GI50 (BT-549 breast) [µM]	GI50 (COLO 205 colon) [µM]	GI50 (OVCAR-8 ovarian) [µM]
O=C1NCC(NC(=O)C(F)(F)F)c2c(Br)sc(Br)c21 (centres undefined)	> 100	> 100	> 100	> 100	> 100	> 100	> 100	> 100	> 100	> 100										
Nc1nc(Cl)cc(NCC2(CO)CCC(CCc3ccccc3)C2)n1 (centres undefined)	33.8	33.3	30.2	33.4	30.3	33.1	27.3	44	25.6	39.4										
CCCCNC(=S)N/N=C/c1cccc(C)n1		> 100	> 100	86.7	> 100	> 100	> 100	> 100	41.8	> 100										
CNc1ncnc2c1cnn2COCC(O)CO (centres undefined)	> 100	> 100	> 100	> 100	> 100	> 100	> 100	> 100	> 100	> 100										
CC(C)=CCC/C(C)=C/COC(C)(C)C1=CCC(C)CC1 (centres undefined) (tested in a mixture with another compound)	> 100	> 100	> 100	> 100	> 100	> 100	> 100	> 100	> 100	> 100										
Nc1ccc(-c2nc3ccccc3s2)cc1C(F)(F)F	22.4	29.4	29.2	33.2	26.4	32.2	36.7	43.1	31.6	27.9	10.6	17.5								
O=C(Oc1cc(=O)c(OC(=O)c2ccccc2)co1)c1ccccc1	> 100	> 100	> 100	> 100	> 100	> 100	> 100	> 100	> 100	> 100										
CC1NC(=O)[C@H](C)N(C)C(=O)[C@@H]2CCCN2C(=O)[C@@H](NC(=O)C(Cc2ccccc2)NC(=O)/C=C/C=C/C=C/C=C/C=C/C(=O)NC2=C(O)CCC2=O)COC(=O)[C@@H]2CCCN2C1=O (some centres undefined) (X26-[ξF]SP[NMeA][ξA]P; ester 2-C)	> 100	> 100	> 100	> 100	> 100	> 100	> 100		> 100	> 100										
C/C1=C\CC[C@@]2(C)O[C@@H]2C[C@@H](C2(C)CO2)CC/C(C)=C/CC1 (some centres undefined)	39.2	32.5	48.8	> 100	42.8	50	33.2	39.6	52.6	93.7										
C[C@]12CC[C@@H]3c4ccc(O)cc4CC[C@H]3[C@@H]1C/C(=C\c1ccncc1)[C@@H]2O	53	30.9	> 100	32	14.2	> 100	19.8	31.7	20.1	23.6										
COc1nc2ncc([C@@H](OC(C)=O)[C@@H](COC(C)=O)OC(C)=O)nc2c(=O)[nH]1		> 100	> 100	> 100	> 100	> 100	> 100	> 100	> 100	> 100			> 100 µM and 32.8 µM	> 100 µM and 41.7 µM	> 100 µM and 11.3 µM					
Cc1ccc(OCCn2cc(Nc3ccccc3)c(=O)n(CCOc3ccc(C)cc3)c2=O)cc1	> 100	> 100	> 100	> 100	> 100	> 100	> 100	> 100	> 100	> 100										
Oc1[nH]c2ccc(Br)cc2c1N=NC(=S)Nc1ccc(F)cc1		23.8	22.3	16.3	2.7	> 100	22.4	19.9	38	30										
C(/C=C(\Nc1ccccc1)C12CC3CC(CC(C3)C1)C2)=Nc1ccccc1	33.2	36.9	56.7	60.7	31.6	34.5	32.6	49.8	24.3	46.4										
COc1cc2cc(Oc3ccc(NC(=O)c4cc(C(F)(F)F)cc(C(F)(F)F)c4)cc3)c(C)nc2cc1OC	> 50	> 50	> 50	> 50	> 50	> 50	> 50		> 50	> 50	> 50	> 50	1.82 µM	2.01 µM	41.5 µM	> 50	4.78	3.02	3.05	
Cc1cn(-c2cc(C(=O)Nc3cccc(-n4ccc5c(NC(=O)c6ccccc6)nccc54)c3)cc(C(F)(F)F)c2)cn1	4.79	9.66	2.2	6.49	10	14.6	1.71	2.99	8.21	3.27	0.862	0.802	0.39 µM	0.375 µM	0.252 µM	0.502	0.525	0.72	0.525	0.419
COc1cc(-c2cc(=O)c3cc4c(=O)cc(-c5cc(OC)c(OC)c(OC)c5)oc4cc3o2)cc(OC)c1OC	> 100	> 100	> 100	43.3	86.2	> 100	> 100	> 100	> 85.8	32.3										

SMILES	TGI (HCC-2998 colon) [µM]	TGI (MALME-3M melanoma) [µM]	TGI (DU-145 prostate) [µM]	TGI (HOP-92 NSCLC) [µM]	TGI (BT-549 breast) [µM]	TGI (OVCAR-5 ovarian) [µM]	TGI (COLO 205 colon) [µM]	TGI (OVCAR-8 ovarian) [µM]	TGI (NCI-H522 lung) [µM]	TGI (SNB-75 CNS) [µM]	GI50 (HCC-2998 colon) [µM]	GI50 (OVCAR-5 ovarian) [µM]	GI50 (HOP-92 NSCLC)	GI50 (NCI-H522 lung)	GI50 (SNB-75 CNS)	GI50 (MALME-3M melanoma) [µM]	GI50 (DU-145 prostate) [µM]	GI50 (BT-549 breast) [µM]	GI50 (COLO 205 colon) [µM]	GI50 (OVCAR-8 ovarian) [µM]
CC1=C2C(=C[C@H]3[C@]4(C)CCCC(C)(C)[C@H]4CC[C@]34O[C@H]24)OC1=O	> 100	> 100	> 100	> 100	> 100	> 100	> 100		> 100	> 100										
COC(=O)CN1c2nc(C#N)c(C#N)nc2N(CC(=O)OC)c2nc(C#N)c(C#N)nc21	> 49.7	3.01	18.3	7.44	11.3	22.6	15.3	> 22.3	3.74	30.4										
CCc1c[n+]([O-])c(C)cc1[N+](=O)[O-]	40.5	97.3	> 100	> 100	> 100	> 100	29.6	> 100	> 100	> 100										
CCOC(=O)c1c(-c2ccccc2)c(-c2ccccc2)cn1C	> 10	> 10	> 10	> 10	> 10	> 10		> 10	> 10	> 10										
C(=Nc1ccc(-c2nc3ccccc3o2)cc1)c1ccco1		> 100	> 100	> 100	> 100	> 100	> 100	> 100	> 100	> 100										
N/C(=N\S(=O)(=O)c1c(C(F)(F)F)cccc1C(F)(F)F)Nc1ccc(Cl)cc1		58.4	> 100	43.6	96	73.1	33.1	78	30.6	> 100										
COc1ccc(S(=O)(=O)N2C(=O)CCC2C(=O)NN)cc1 (centres undefined)	> 100	> 100	> 100	> 100	> 100	> 100	> 100	> 100	> 100	> 100										
Clc1ccc(CSCCc2ccncc2)cc1Cl	34.2	42.4	> 100	30.4	42.6	66.8	27.2	46	33.8	77.6										
Cc1ccc([N+](=O)[O-])cc1N=NC(=O)NNc1cc([N+](=O)[O-])ccc1C	58	> 100	> 100	> 100	52.1	> 100	> 100	70	29.7	66.2										
NC(CC1=CS(=O)(=O)c2ccc(Cl)cc21)C(=O)O (centres undefined)		> 100	> 100	> 100	> 100	> 100	> 100	> 100	> 100	> 100										
CCCCn1cnc2c(c(CC#N)nn2-c2ccccc2)c1=N	> 100	> 100	> 100	> 100	> 100	> 100	92.8	> 100	> 100	> 100										
O=C1CC(C(O)(C(F)(F)F)C(F)(F)Cl)CCC1C(O)(C(F)(F)F)C(F)(F)Cl (centres undefined)	> 10	> 10	> 10	5.09	> 10	> 10	> 10	> 10	> 10	> 10										
NCCCN1CCN(CCCNc2ccc3nnn4c5ccccc5c(=O)c2c34)CC1	29.4	39.1	57.6	96.6	22.6	> 100	19.4	> 100	27.1	48.3										
C[C@@H]1S[C@H](c2ccccc2F)N2Cc3ccccc3N=C12	40.9	54.2	> 100	65	> 100	> 100	> 100	> 100	51.6	97.4										
COC(C)(C)[C@@H](O)[C@H]1C[C@H](C)[C@@]2(CC[C@]3(C)[C@@H]2CC[C@@H]2[C@@]4(C)CC[C@@H](OC(C)=O)C(C)(C)[C@@H]4C[C@@H](OC4OC(COC(C)=O)C(O)C(O)C4O)[C@]23C)O1 (some centres undefined)	2.92	23.4	15.7	17.6	15.2	7.18	6.18	18.7	17.4	16.5										
CC(=O)Oc1cc(C(F)(F)F)ccc1C(=O)OC1(C)OC(=O)c2ccc(C(F)(F)F)cc2O1 (centres undefined)	> 100	> 100	> 100	> 100	> 100	> 100	> 100	> 100	> 100	> 100										

Source: PubChem BioAssay (NCI)
